Data published in patent publication US6444695B1, “Inhibition of thrombin-induced platelet aggregation by creatine kinase inhibitors” (The Regents of the University of California, priority 2000, dated 2002).
Entries after “also recorded” stand apart in the source; their conditions may differ.

How the values were obtained:
astrocytes [1] = test: Intracellular calcium assay (Fluo-3, FLIPR) in astrocytes after thrombin; format: cell-based, rat; settings: thrombin 10 pM, cyclocreatine 50 mM 4 h or U-73122 1 μM 10 min
Description: Intracellular Calcium Assay. Astrocytes were treated with or without 50 mM cyclocreatine for 4 h. Cell medium was decanted and replaced with Fluo-3 AM (Molecular Probes) for 1 h. Some wells received 1 μM U-73122 (Biomol, Plymouth Meeting, Pa.) for 10 min before 10 pM thrombin and 10 mM EDTA injection. The relative intracellular calcium levels were monitored at […] for 210 sec in 4-8 identically treated wells by using a Fluorometric Imaging Plate Reader (Molecular Devices).

[2] = test system: human umbilical vein endothelial cells (HUVEC); test: Intracellular calcium assay (Fluo-3, FLIPR) in HUVEC after thrombin; format: cell-based
Description: To assay for intracellular calcium levels, cell media was decanted and replaced with Fluo-3 AM (Molecular Probes) in […] of loading buffer with 1% Fetal Calf Serum (FCS) for 1 hour. Cells were rinsed with loading buffer and the 96-well plate was placed into a Fluorometric Imaging Plate Reader (FLIPR, Molecular Devices, Sunnyvale, Calif.). The relative intracellular calcium levels were monitored at […] for 210 seconds in 4 to 8 identically treated wells. To monitor calcium release from intracellular stores thrombin was delivered in buffer containing 10 mM EDTA. Various phospholipase C inhibitors were applied as well.

astrocytes [3] = test: Total cellular ATP levels and cell viability; format: cell-based, rat; settings: data not shown
Description: Materials. The protein-protein interaction screen was performed by using the Matchmaker GAL4 two-hybrid system and a rat brain cDNA library (CLONTECH). Rabbit anti-PAR-1 antibody was a gift from M. Runge (University of Texas Medical Branch, Galveston), anti-CKB antibodies were obtained from Chemicon, and anti-RhoA was from Santa Cruz Biotechnology. CKB activity was measured with CK 520 Sigma. ATP levels were measured with the bioluminescent somatic cell assay (Sigma FL-ASC). Thrombin and purified CKB were purchased from Calbiochem, and cyclocreatine was purchased from Sigma. Site-directed mutagenesis was performed with Quick Change (Stratagene). G. Molloy (Delaware University) graciously provided the CKB plasmid, and T. Ma (Baylor College, Houston) provided the dominant negative CKB mutant. Statistical analysis was carried out by using two-way ANOVA.

[4] = test system: primary cortical astrocyte cultures; test: Astrocyte morphology studies (thrombin-induced shape change, stellate vs flat); format: cell-based, rat; settings: for effect on morphological response of astrocytes to thrombin / fold greater number of astrocytes remaining stellate after thrombin: 10 pM thrombin 2 h; for fold greater number of astrocytes remaining stellate after thrombin: versus thrombin alone
Description: Coimmunoprecipitation. Primary cortical astrocyte cultures were prepared from 1- to 2-day-old Sprague-Dawley rats as described in Donovan, et al., (1997) J. Neurosci. 17: 5316-5326. Astrocytes were solubilized and incubated with control antibody (rabbit IgG) or anti-PAR-1 antibody overnight at 4° C. in the presence of protein A-Sepharose. Immunoprecipitation products were either subjected to CKB activity assays or separated by SDS/PAGE and analyzed on immunoblots with anti-CKB antibodies.
(§1) Astrocyte Morphology Studies. Oligonucleotides based on a CKB antisense sequence (GUGUCUGCAACAGCUUAGC-CAUCAG), a control reverse sequence ([…]), and an identical antisense sequence rendered insensitive to RNaseH were purchased from Sequitur (Natick, Mass.) and transformed into primary astrocyte cultures with Lipofectin (GIBCO/BRL) for 1 h. After 18 h, cells were differentiated in 1.5 mM dibutyryl cAMP for 2 h. A total of 10 pM thrombin was added for 2 h for a maximal response, and the morphology of approximately 200 cells was examined under phase-contrast micrography and scored as either stellate or flat. Antisense knockdown of CKB was confirmed by immunoblot analysis. Morphology assays were also performed after a 4-h treatment with 50 mM cyclocreatine.

[5] = test system: human umbilical vein endothelial cells (HUVEC); test: Thrombin-induced cell rounding / contraction of HUVEC; format: cell-based; settings: for % of cells round after thrombin: thrombin 10 pM 20 minutes (control 2%, thrombin alone 80%); for effect on thrombin-induced cell rounding / contraction: thrombin 10 pM 20 minutes
Description: Primary cultures of pooled Human umbilical vein endothelial cells (HUVEC) cells were purchased from Clonetics (Walkersville, Md.) and cultured according to the manufacturer's protocol. About 2500 cells/cm^2 were cultured in Endothelial Cell Growth Medium BulletKit-2 (Clonetics, Walkersville, Md.) on collagen (Gibco, Grand Island, N.Y.) coated RS Lab Tek II slides for 5 days until confluent. Cells were then cultured in low serum (0.5%) medium overnight. Cells were treated with 50 mM cyclocreatine for 3 to 4 hours, or with […] ROCK (Rho Kinase) inhibitor Y-27632 for 30 minutes, as described in Maekawa et al., (1999) Science 285: 895-8, hereby incorporated by reference in its entirety.
Thrombin was delivered at a final concentration of 10 pM for 20 minutes to endothelial cells. F-actin was stained with Alexa 594 phalloidin (Molecular Probes). HUVECs were examined under fluorescence and phase contrast micrography, and cells were scored as either round or flat.

platelets = test: Thrombin-induced platelet aggregation in platelet-rich plasma (Chrono-Log aggregometer); format: cell-based, human; settings: 30 min preincubation, 1 nM thrombin, PRP
Description: Blood from healthy volunteers was collected in an anti-coagulant citrate solution according to standard protocols. The whole blood/citrate solution was centrifuged at 200×g for 10 minutes to obtain platelet-rich plasma (PRP). The platelet count, as determined by Coulter Counter, was 2.88×10^8/mL. Aliquots (0.5 mL each) of the PRP were incubated with and without various concentrations of cyclocreatine (0 to 10 mM final concentration) for 30 minutes at room temperature. The aggregation assay was then carried out in the presence of thrombin (10 ul of thrombin was added to each aliquot, to a final concentration of 1 nM) with stirring at 37° C. using a Chrono-Log Whole Blood Aggregometer. (Chronolog Corp., Havertown, Pa.) Absorbance was measured at 500 nm.

RhoA = RhoA activation and translocation assay; format: cell-based, rat; settings: astrocytes, 50 mM cyclocreatine 4 h
Description: RhoA Activation and Translocation Assay. Active RhoA levels were measured in primary rat astrocytes as described in Ren, et al., (1999) EMBO J. 18: 578-585. Astrocytes received a 4-h 50 mM cyclocreatine treatment before the thrombin (10 pM) addition for 10 min. Cell lysates were incubated with GST-Rhotekin binding domain (20-30 μg) for 45 min, washed, and immunoprobed with anti-RhoA antibody. For membrane RhoA, crude membrane fractions were prepared as described in Donovan, et al., (1997) J. Neurosci. 17: 5316-5326. Fifteen micrograms of membrane protein fractions was separated by SDS/PAGE and immunoblotted with anti-RhoA antibody.

Ad12HER10 retinoblasts = test: Thrombin/PAR-1 morphological response in retinoblasts; format: cell-based, human; settings: Ad12HER10, data not shown
Description: Dominant Negative CKB Studies. The dominant negative CKB mutant C283S, described in Lin, et al., (1994) Biochim. Biophys. Acta 1206: 97-104, was cloned into the pIRES-EGFP vector (CLONTECH) and transfected for 6 h with Novafector (VennNova, LCC) into Ad12HER10 retinoblasts seeded into Lab-Tek II slides (Nunc). After 18 h, cells were differentiated with 2 mM dibutyryl cAMP in serum-free medium for 6 h. After addition of thrombin (160 nM) for 2 h, transfected cells (20-30%) were identified by fluorescence micrography, and the cell morphology of approximately 100 transfected cells was examined with phase-contrast illumination and scored blind to treatment as either refractile or flat.

CKB = CKB immunoblot after antisense knockdown; format: cell-based, rat; settings: astrocytes, 18 h after transfection
Description: as §1

COc1ccc2c(c1)CC[C@@H]1[C@@H]2CC[C@]2(C)[C@@H](NCCCCCCN3C(=O)C=CC3=O)CC[C@@H]12 [U-73122, reference compound]
effect on thrombin-induced peak intracellular calcium (astrocytes [1]): inhibited
effect on thrombin-induced calcium response (peak fluorescence) [2]: completely abolished

NC1=NCCN1CC(=O)O [cyclocreatine]
effect on cell viability (astrocytes [3]): no effect
effect on total cellular ATP levels (astrocytes [3]): no effect
effect on morphological response of astrocytes to thrombin [4]: dose-dependent decrease
fold greater number of astrocytes remaining stellate after thrombin [4]: ≤ 4 fold
effect on morphological response of astrocytes to thrombin ([4]; listed as Cyclocreatine): protects
effect on thrombin-induced peak intracellular calcium (astrocytes [1]): only a minor decline
% of cells round after thrombin ([5]; maximum dose of cyclocreatine (50 mM, 3 to 4 hours)): 20%
effect on thrombin-induced cell rounding / contraction [5]: inhibited; also recorded: dose-dependent protective effect; also recorded: protected
% Aggregation of Platelets (platelets; 1 mM cyclocreatine): 88%
% Aggregation of Platelets (platelets; 5 mM cyclocreatine): 11%
% Aggregation of Platelets (platelets; 10 mM cyclocreatine): 0%
RhoA translocation to the membrane after thrombin treatment (RhoA; thrombin 10 pM): almost no translocation
GTP-RhoA after thrombin treatment (GST-rhotekin pull-down) (RhoA; thrombin 10 pM 10 min): significantly reduced
effect on thrombin/PAR-1 morphological response in retinoblasts (Ad12HER10 retinoblasts): blocked
effect on thrombin-induced calcium response (peak fluorescence) [2]: almost no effect; also recorded: no significant changes

CCCCCCCCCCCCCCCCCCOCC(COP(=O)([O-])OCC[N+](C)(C)C)OC (centres unmarked) [ET18-OCH3]
effect on thrombin-induced calcium response (peak fluorescence) [2]: completely abolished

C[C@@H](N)[C@H]1CC[C@H](C(=O)Nc2ccncc2)CC1 [ROCK (Rho Kinase) inhibitor, Y-27632, reference compound]
% of cells round after thrombin ([5]; 10 mM Y-27632 for 30 minutes): 2%
effect on thrombin-induced cell rounding / contraction [5]: completely blocked

CKB antisense ODNs: antisense oligonucleotide GUGUCUGCAACAGCUUAGC-CAUCAG directed toward the 3′ end of the CKB mRNA (Sequitur) (antisense GUGUCUGCAACAGCUUAGCCAUCAG; chemistry not given here)
effect on cell viability (astrocytes [3]): did not affect
effect on total cellular ATP levels (astrocytes [3]): did not affect
CKB expression level (Western blot) (CKB): significantly lower levels
effect on morphological response of astrocytes to thrombin [4]: no longer responded
fold greater number of astrocytes remaining stellate after thrombin [4]: > 3 fold
effect on astrocyte morphology without thrombin ([4]; treatment alone): without affecting

reverse sequence ODN (Rev): control reverse sequence oligonucleotide GACUACCGAUUCGACAACGUCUGUG (chemistry not given here) [reference compound]
CKB expression level (Western blot) (CKB): Neither a reverse sequence ODN (Rev) nor the ODN rendered insensitive to RNaseH had any significant effect
effect on morphological response of astrocytes to thrombin [4]: Neither a reverse sequence ODN (Rev) nor the ODN rendered insensitive to RNaseH had any significant effect

C/C=C(/C)C(=O)O[C@H]1C(C)=C2[C@H]([C@@H]1OC(=O)CCCCCCC)[C@@](C)(OC(C)=O)C[C@H](OC(=O)CCC)[C@@]1(O)[C@H]2OC(=O)[C@@]1(C)O [thapsigargin]
effect on thrombin-induced calcium response (peak fluorescence) [2]: completely abolished
